# Data from patent publication US20100273822A1, “Immediate release compositions and methods for delivering drug formulations using strong acid ion exchange resins” (priority 2009, published 2010).
# Assay: Dissolution test USP 31 NF 26 section 711, apparatus 1 baskets at 100 rpm
# Type: physicochemical
# Procedure: The release enhancing agent, CaCl2, was added to the capsule blend of the first sample while a second formulation was prepared as a control without the use of the release enhancing agent. Six capsules from each formulation were then tested for dissolution.
# The test used followed USP 31 NF 26 section 711 using apparatus 1 baskets at 100 rpm (no enzymes). The media selected was simulated gastric (0.1N HCl) at a volume of 900 ml. One capsule was added to each dissolution vessel. At the 60 minute time point the baskets were removed without touching the contents and subsequently placed in dissolution vessels containing 900 ml of simulated intestinal fluid (pH of 6.8). Aliquots were drawn at 15, 30, 45, and 120 minutes. An equivalent amount of media was replaced in the dissolution vessel to account for the volume of the sample removed. The aliquots were filtered and subsequently analyzed using HPLC equipped with a UV detector.
# The process that was used to create the resinate, filling the capsules and carrying out the dissolution test in this example was the same as described in Example 1 except that 60 mg of CaCl2 was used instead of 40 mg as in Example 1.
compound,measurement,setting,value
[Ca+2].[Cl-].[Cl-] [CaCl2],effect of adding the release enhancing agent on release rate of dextromethorphan vs control formulation,"Example 1, 40 mg CaCl2 in capsule with dextromethorphan IRP69 resinate",increased the release rate of dextromethorphan
same,effect of adding the release enhancing agent on release rate of dextromethorphan vs control formulation,"Example 2, 60 mg CaCl2 in capsule with dextromethorphan IRP69 resinate",increased the release rate of dextromethorphan
